{"source": "patent US9663478B2", "about": "“Benzotriazine oxides as drugs targeting Mycobacterium tuberculosis” (priority 2011, dated 2017)", "key": {"[1]": {"system": "Escherichia coli pKM101 SRI Collection", "assay": "Spectrum of antimicrobial activity", "format": "cell-based"}, "[2]": {"system": "Enterococcus faecium ATCC 19434", "assay": "Spectrum of antimicrobial activity", "format": "cell-based"}, "[3]": {"system": "Acinetobacter baumannii ATCC 17978", "assay": "Spectrum of antimicrobial activity", "format": "cell-based"}, "[4]": {"system": "Enterococcus fecalis ATCC 51575", "assay": "Spectrum of antimicrobial activity", "format": "cell-based"}, "[5]": {"system": "Klebsiella pneumoniae ATCC 700721", "assay": "Spectrum of antimicrobial activity", "format": "cell-based"}, "Mtb H37Rv [6]": {"system": "Mtb H37Rv", "assay": "TB MIC - SRI, resazurin-based microplate assay", "format": "cell-based, Mycobacterium tuberculosis", "settings": "source CSU; SI Table 1"}, "[7]": {"system": "Pseudomonas aeruginosa ATCC 27853", "assay": "Spectrum of antimicrobial activity", "format": "cell-based"}, "Escherichia coli BAA 201": {"system": "Escherichia coli BAA 201", "assay": "Spectrum of antimicrobial activity", "format": "cell-based"}, "[8]": {"system": "Salmonella choleraesuis ATCC 13311", "assay": "Spectrum of antimicrobial activity", "format": "cell-based"}, "[9]": {"system": "Acinetobacter baumannii BAA 1605", "assay": "Spectrum of antimicrobial activity", "format": "cell-based"}, "[10]": {"system": "Mycobacterium smegmatis ATCC 10143", "assay": "Spectrum of antimicrobial activity", "format": "cell-based"}, "[11]": {"system": "Enterobacter aerogenes SRI Collection", "assay": "Spectrum of antimicrobial activity", "format": "cell-based"}, "[12]": {"system": "Moraxella catarrhalis ATCC 25238", "assay": "Spectrum of antimicrobial activity", "format": "cell-based"}, "[13]": {"assay": "Solubility, shake-flask method", "format": "physicochemical", "settings": "0.9% saline solution at pH 7.4, triplicate", "method": "The solubility of these two compounds was measured in triplicate using the shake-flask method in a 0.9% saline solution at pH 7.4. Both 8a and 20q had acceptable solubilities of 1.35 mg/mL and 0.28 mg/mL, respectively.\nCompounds were ground into a fine powders using a mortar and pestle and added to a 25 mL glass Erlenmeyer flask with 5 mL of a 0.9% saline solution at pH 7.4. Approximately 20 mg of compound was added to each flask to ensure saturation. The flasks were then vigorously stirred using a magnetic stir bar at 25° C. for 48 hours. The samples were then filtered through a Whatman PVDF membrane (0.45 μm pore size) syringe filter. The concentration of compound in the supernatant was then measured using HPLC quantitation at the maximum absorption wavelength for each compound."}, "[14]": {"system": "Salmonella typhimurium -Hisg46 SRI Collection", "assay": "Spectrum of antimicrobial activity", "format": "cell-based"}, "[15]": {"system": "Klebsiella pneumoniae ATCC 43816", "assay": "Spectrum of antimicrobial activity", "format": "cell-based"}, "[16]": {"system": "Staphylococcus aureus ATCC 29213", "assay": "Spectrum of antimicrobial activity", "format": "cell-based"}, "[17]": {"system": "Enterococcus fecalis ATCC 29212", "assay": "Spectrum of antimicrobial activity", "format": "cell-based"}, "[18]": {"system": "Enterobacter aerogenes ATCC 29751", "assay": "Spectrum of antimicrobial activity", "format": "cell-based"}, "[19]": {"system": "Staphylococcus aureus HA-MRSA NRS 382", "assay": "Spectrum of antimicrobial activity", "format": "cell-based"}, "Mtb H37Rv [20]": {"system": "Mtb H37Rv", "assay": "TB MIC - ITR (UIC), Institute for Tuberculosis Research", "format": "cell-based, Mycobacterium tuberculosis", "settings": "Mycobacterium tuberculosis, H37RV; Tables 1-4; read-out: TB MIC - ITR"}, "[21]": {"system": "Mycobacterium abscessus ATCC 19977", "assay": "Spectrum of antimicrobial activity", "format": "cell-based"}, "[22]": {"assay": "Plasma pharmacokinetics in female mice after oral administration", "format": "in vivo, mouse", "settings": "100 mg/kg", "method": "In order to validate BTOs as a new lead series for the treatment of TB, we also evaluated their systemic exposure in the mouse after oral administration. A single dose (100 mg/kg) of 8a and 20q were administered to mice in order to profile the pharmacokinetics for the BTOs (Table 7). […] The elimination half-life was for each compound was shorter than our ideal target values, but the Tmax values indicate that they are rapidly absorbed after oral administration (FIGURE).\nAll pharmacokinetic studies were performed in accordance with SRI International's animal care policies in an AAALAC and OLAW accredited facility. The procedure for the pharmacokinetics studies followed a previously described method.^55 Briefly, the plasma pharmacokinetics of selected BTO derivatives were determined in female CD1 mice after administration of a single dose (100 mg/kg) by oral gavage. Blood was collected from three mice per time point at 5, 15, 30, and 60 min and 2, 4, 6, 8, and 24 h after dose administration. Means and standard deviations were calculated for the plasma drug concentrations at each time point. Pharmacokinetic analysis was performed using non compartmental methods (WinNonlin® Professional, Version 5.2, Pharsight Corp, Mountain View, Calif.). The following parameters were calculated: time to maximum plasma concentration (Tmax), maximum plasma concentration (Cmax), maximum plasma concentration extrapoloated to time 0 (C0), area under the plasma concentration-time curve to the last time point (AUClast) and to infinity (AUCinf)."}, "NRP Mtb H37Rv cells": {"system": "NRP Mtb H37Rv cells", "assay": "Low-oxygen recovery assay (LORA) MIC", "format": "cell-based, Mycobacterium tuberculosis", "settings": "Mycobacterium tuberculosis, H37RV, read-out: LORA MIC - ITR"}, "[23]": {"system": "Escherichia coli ATCC 25922", "assay": "Spectrum of antimicrobial activity", "format": "cell-based"}}}
{"smiles": "CCNc1n[n+]([O-])c2ccccc2[n+]1[O-]", "note": "[Compound 8a, 3-(ethylamino)benzo[e][1,2,4]triazine 1,4-dioxide]", "values": [{"measurement": "Antimicrobial activity, Escherichia coli pKM101", "setting": "[1]", "result": 32, "unit": "μg/mL"}, {"measurement": "Antimicrobial activity, Enterococcus faecium", "setting": "[2]", "result": ">32", "unit": "µg/mL"}, {"measurement": "Antimicrobial activity, Acinetobacter baumannii", "setting": "[3]", "result": 32, "unit": "µg/mL"}, {"measurement": "Antimicrobial activity, Enterococcus fecalis", "setting": "[4]", "result": 32, "unit": "µg/mL"}, {"measurement": "Antimicrobial activity, Klebsiella pneumoniae", "setting": "[5]", "result": ">32", "unit": "µg/mL"}, {"measurement": "Antimicrobial activity, Mtb H37Rv", "setting": "Mtb H37Rv [6]", "result": 1.2, "unit": "µg/mL"}, {"measurement": "Antimicrobial activity, Pseudomonas aeruginosa", "setting": "[7]", "result": ">32", "unit": "µg/mL"}, {"measurement": "Antimicrobial activity, Escherichia coli", "setting": "Escherichia coli BAA 201", "result": 16, "unit": "µg/mL"}, {"measurement": "Antimicrobial activity, Salmonella choleraesuis", "setting": "[8]", "result": 32, "unit": "µg/mL"}, {"measurement": "Antimicrobial activity, Acinetobacter baumannii", "setting": "[9]", "result": ">32", "unit": "µg/mL"}, {"measurement": "Antimicrobial activity, Mycobacterium smegmatis", "setting": "[10]", "result": 5.0, "unit": "µg/mL"}, {"measurement": "Antimicrobial activity, Enterobacter aerogenes", "setting": "[11]", "result": ">32", "unit": "µg/mL"}, {"measurement": "Antimicrobial activity, Moraxella catarrhalis", "setting": "[12]", "result": 32, "unit": "µg/mL"}, {"measurement": "solubility", "setting": "[13]", "result": 1.35, "unit": "mg/mL"}, {"measurement": "Antimicrobial activity, Salmonella typhimurium -Hisg46", "setting": "[14]", "result": ">32", "unit": "µg/mL"}, {"measurement": "Antimicrobial activity, Klebsiella pneumoniae", "setting": "[15]", "result": ">32", "unit": "µg/mL"}, {"measurement": "Antimicrobial activity, Staphylococcus aureus", "setting": "[16]", "result": ">32", "unit": "µg/mL"}, {"measurement": "Antimicrobial activity, Enterococcus fecalis", "setting": "[17]", "result": 16, "unit": "µg/mL"}, {"measurement": "Antimicrobial activity, Enterobacter aerogenes", "setting": "[18]", "result": ">32", "unit": "µg/mL"}, {"measurement": "Antimicrobial activity, Staphylococcus aureus HA-MRSA", "setting": "[19]", "result": "16 to 32", "unit": "µg/mL"}, {"measurement": "MIC", "setting": "Mtb H37Rv [20]", "result": 0.57, "unit": "µg/mL"}, {"measurement": "susceptibility of M. abscessus", "setting": "[21]", "result": "resistant"}, {"measurement": "Antimicrobial activity, Mycobacterium abscessus", "setting": "[21]; ATCC 19977", "result": ">32", "unit": "µg/mL"}, {"measurement": "AUCinf", "setting": "[22]; female mice, oral", "result": 6937, "unit": "ng·h/mL"}, {"measurement": "AUClast", "setting": "[22]; female mice, oral", "result": 6578, "unit": "ng·h/mL"}, {"measurement": "Cmax", "setting": "[22]; female mice, oral", "result": 9540, "unit": "ng/mL"}, {"measurement": "Tmax", "setting": "[22]; female mice, oral", "result": 4.8, "unit": "min"}, {"measurement": "t1/2", "setting": "[22]; female mice, oral", "result": 1.5, "unit": "h"}, {"measurement": "plasma drug concentration at the 24 hr time point", "setting": "[22]; mouse, in vivo, po", "result": "lower than the limit of quantitation"}, {"measurement": "MIC", "setting": "NRP Mtb H37Rv cells", "result": 0.37, "unit": "µg/mL"}, {"measurement": "Antimicrobial activity, Escherichia coli", "setting": "[23]", "result": 16, "unit": "µg/mL"}]}
